What was measured:
[1] = tested on: individual who presented with cancer pain caused by throat cancer; assay: Case report: cancer pain; assay type: in vivo, humans; conditions: water containing the anion, ingested
Protocol: An individual who presented with cancer pain caused by throat cancer was administered water containing the cannabidiol anion (2-[6-isopropenyl-3-methylcyclohex-2-enyl]-3-hydroxy-5-pentylphenolate).

[2] = tested on: individual who presented with back pain associated with driving for prolonged periods of time; assay: Case report: acute back pain; assay type: in vivo, humans; conditions: glycerol tincture, ingested
Protocol: An individual who presented with back pain associated with driving for prolonged periods of time was administered a glycerol tincture containing the cannabidiol anion.

[3] = tested on: individual who presented with chronic back pain associated with standing; assay: Case report: chronic back pain; assay type: in vivo, humans; conditions: glycerol tincture, ingested
Protocol: An individual who presented with chronic back pain associated with standing was administered a glycerol tincture containing the cannabidiol anion.

[4] = tested on: individual who presented with hip pain associated with sitting; assay: Case report: chronic hip pain; assay type: in vivo, humans; conditions: glycerol tincture, ingested
Protocol: An individual who presented with hip pain associated with sitting was administered a glycerol tincture containing the cannabidiol anion.

[5] = tested on: individual with hip pain and lower back pain associated with spinal fusion surgery; assay: Case report: post laminectomy syndrome; assay type: in vivo, humans; conditions: glycerol tincture, ingested
Protocol: An individual with hip pain and lower back pain associated with spinal fusion surgery was administered a glycerol tincture containing the cannabidiol anion.

[6] = tested on: individual who presented with knee pain associated with inflammation caused by trauma from a fall; assay: Case report: knee pain; assay type: in vivo, humans; conditions: glycerol tincture, ingested
Protocol: An individual who presented with knee pain associated with inflammation caused by trauma from a fall was administered a glycerol tincture containing the cannabidiol anion.

[7] = tested on: individual with arthritis; assay: Case report: arthritis; assay type: in vivo, humans; conditions: glycerol tincture
Protocol: An individual who was unable to fill […] hydroxychloroquine prescription to treat the arthritis during the COVID-19 pandemic was administered a glycerol tincture containing the cannabidiol anion.

[8] = tested on: individual who presented with chronic pain; assay: Case report: chronic pain; assay type: in vivo, humans; conditions: glycerol tincture
Protocol: An individual who presented with chronic pain was administered a glycerol tincture containing the cannabidiol anion.

individuals with anxiety = assay: Case reports: anxiety; assay type: in vivo, humans
Protocol: An individual was administered a beverage containing the cannabidiol anion prior to driving to an airport to catch a flight that was scheduled to leave within thirty minutes of the arrival at the airport.
An individual who suffers from chronic anxiety was administered a glycerol tincture containing the cannabigerol anion.

[9] = tested on: individual who presented with social anxiety associated with presenting at business meetings; assay: Case report: social anxiety; assay type: in vivo, humans; conditions: beverage containing the anion, before presenting
Protocol: An individual who presented with social anxiety associated with presenting at business meetings was administered a beverage containing the cannabidiol anion before presenting.

[10] = tested on: individual who presented with cramping and restless legs syndrome; assay: Case report: cramping and restless legs syndrome; assay type: in vivo, humans; conditions: glycerol tincture before sleep
Protocol: An individual who presented with cramping and restless legs syndrome was administered a glycerol tincture containing the cannabidiol anion before sleep.

[11] = tested on: dog that suffers from chronic seizures; assay: Case report: epilepsy in a dog; assay type: in vivo; conditions: glycerol tincture immediately after the onset of a seizure
Protocol: A dog that suffers from chronic seizures was administered a glycerol tincture containing the cannabidiol anion immediately after the onset of a seizure.

Female Sabra mice = assay: Zymosan A right hind paw arthritis model: paw swelling (calipers) and pain (Von Frey); assay type: in vivo; conditions: relative to vehicle control groups, 1-64 mg/kg/day oral gavage for one month; for right hind paw inflammation: swelling at 1, 2, 6, 12, 24 hours after zymosan A; for right hind paw pain: Von Frey hair aesthesiometer
Protocol: (§1) Female Sabra mice are administered either vehicle or a cannabinoid. The cannabinoid is selected from 2-geranyl-5-pentylbenzene-1,3-diol (“cannabigerol”) and 2-geranyl-5-propylbenzene-1,3-diol (“cannabigerovarin”). The cannabinoid is administered at an amount of either 1, 2, 4, 8, 16, 32, or 64 milligrams cannabinoid per kilogram mouse body weight per day by oral gavage beginning when they are two months old.
(§2) Following one month of administration of either vehicle or a cannabinoid, 30 microliters of a 2 percent weight-by-volume suspension of zymosan A in saline is injected into each right hind paw of the mice. Inflammation is measured with calipers to determine right hind paw swelling at 1, 2, 6, 12, and 24 hours following the zymosan A injection relative to left hind paw. Pain is measured with a Von Frey hair aesthesiometer to determine right hind paw sensitivity to force relative to left hind paw. Serum TNF-alpha concentration is measured at 24 hours by enzyme-linked immunosorbent assay.

TNF-alpha = assay: Serum TNF-alpha by enzyme-linked immunosorbent assay in zymosan A paw model; assay type: in vivo, mice; conditions: relative to vehicle control groups; 24 hours after zymosan A; 1-64 mg/kg/day oral gavage
Protocol: as §1, §2

[12] = tested on: neutrophil-mediated inflammation; assay: Zymosan A knee arthritis model: neutrophil elastase imaging and transcript RT-PCR; assay type: in vivo; conditions: male C57BL/6J mice; for imaged right knee neutrophil elastase: relative to vehicle control group, imaged 4 hours post-injection, 1-64 mg/kg/day oral gavage; for adamts4 transcripts / myeloperoxidase transcripts / neutrophil elastase transcripts: relative to vehicle control groups, real-time PCR
Protocol: Male C57BL/6J mice are administered either vehicle or a cannabinoid. The cannabinoid is selected from cannabigerol and cannabigerovarin. The cannabinoid is administered at an amount of either 1, 2, 4, 8, 16, 32, or 64 milligrams cannabinoid per kilogram mouse body weight per day by oral gavage beginning when they are two months old.
Following one month of administration, mice are anesthetized with isoflurane and then 180 micrograms of zymosan A in saline is injected into the right knee of each mouse. Equivalent volumes of saline are injected into the left knee of each mouse. Mice are then injected with Neutrophil Elastase 680 FAST imaging probe (Perkin Elmer, Massachusetts, United States) and imaged 4 hours post-injection using an IVIS Spectrum In Vivo Imaging System (Perkin Elmer) to measure neutrophil-mediated inflammation. Mouse RNA is extracted and purified, and then relative adamts4 transcript, relative neutrophil elastase transcript, and relative myeloperoxidase transcript concentrations are measured following reverse transcription using real-time polymerase chain reactions.

Mice fed a high-fat diet = assay: Diet-induced obesity model: body weight, serum ALT/AST, liver steatosis; assay type: in vivo; conditions: 1-64 mg/kg/day oral gavage for two months; for liver steatosis: hematoxylin and eosin staining
Protocol: Mice are fed either a control standard diet or a high-fat diet beginning when they are two months old. The mice are concomitantly administered either vehicle or a cannabinoid selected from cannabigerol and cannabigerovarin at an amount of either 1, 2, 4, 8, 16, 32, or 64 milligrams cannabinoid per kilogram mouse body weight per day by oral gavage.
Mouse body weights are measured daily. The mice are sacrificed when they are four months old following two months of the diet, cannabinoid (or vehicle), and weighing. Serum alanine aminotransferase (“ALT”) and serum aspartate aminotransferase (“AST”) are measured using a Reflotran Plus blood chemistry system (Roche, Switzerland). Mouse livers are fixed and then stained with hematoxylin and eosin to visualize liver steatosis.

[13] = tested on: individual who presented with chronic insomnia; assay: Case report: insomnia; assay type: in vivo, humans; conditions: glycerol tincture before sleep
Protocol: An individual who presented with chronic insomnia was administered a glycerol tincture containing the cannabigerol anion before sleep.

[14] = tested on: individual who presented with Crohn's disease; assay: Case report: Crohn's disease; assay type: in vivo, humans; conditions: glycerol tincture
Protocol: An individual who presented with Crohn's disease was administered a glycerol tincture containing the cannabigerol anion.

[15] = tested on: individual who presented with Inflammatory Bowel Disease; assay: Case report: Inflammatory Bowel Disease; assay type: in vivo, humans; conditions: glycerol tincture
Protocol: An individual who presented with Inflammatory Bowel Disease was administered a glycerol tincture containing the cannabigerol anion.

[16] = tested on: individual who presented with plaque psoriasis; assay: Case report: plaque psoriasis; assay type: in vivo, humans; conditions: glycerol formulation, topical
From the text: An individual who presented with plaque psoriasis topically administered a glycerol formulation containing the cannabigerol anion.

[17] = tested on: individual who presented with peripheral neuropathy; assay: Case report: peripheral neuropathy; assay type: in vivo, humans; conditions: glycerol formulation, topical
From the text: An individual who presented with peripheral neuropathy topically administered a glycerol formulation containing the cannabigerol anion.

Structure (SMILES) | right hind paw inflammation (Female Sabra mice) | right hind paw pain (Female Sabra mice) | serum TNF-alpha concentration (TNF-alpha) | imaged right knee neutrophil elastase [12] | adamts4 transcripts [12] | myeloperoxidase transcripts [12] | neutrophil elastase transcripts [12] | body weight (Mice fed a high-fat diet) | serum ALT (Mice fed a high-fat diet) | serum AST (Mice fed a high-fat diet) | liver steatosis (Mice fed a high-fat diet) | also measured
C=C(C)C1CCC(C)=CC1c1c(O)cc(CCCCC)cc1O (stereo not shown) [cannabidiol anion, 2-[6-isopropenyl-3-methylcyclohex-2-enyl]-3-hydroxy-5-pentylphenolate] | – | – | – | – | – | – | – | – | – | – | – | throat pain (self-reported) [1]: notable alleviation of throat pain within minutes of ingestion; back pain (self-reported) [2]: notable alleviation of the back pain within minutes of ingestion; back pain (self-reported) [3]: notable alleviation of the back pain within minutes of ingestion; hip pain (self-reported) [4]: notable alleviation of the hip pain within minutes of ingestion; hip pain and lower back pain (self-reported) [5]: notable alleviation of hip pain and lower back pain within minutes of ingestion; mobility and knee pain (self-reported) [6]: improved mobility and alleviation of knee pain within minutes of ingestion; treatment of arthritis compared with hydroxychloroquine (self-reported) [7]: more effective at treating their arthritis than hydroxychloroquine; chronic pain (self-reported) [8]: alleviation of pain that significantly improved their standard of living; anxiety during drive to airport (self-reported) (individuals with anxiety; beverage containing the anion, before driving): notable absence of anxiety; social anxiety and performance during business meeting (self-reported) [9]: reduced anxiety and improved performance during the business meeting; sleep quality (self-reported) [10]: significant improvement in sleep quality; seizures (reported by owners) [11]: both instantaneously and consistently arrested multiple seizures in the dog
CCCCCc1cc(O)c(C/C=C(\C)CCC=C(C)C)c(O)c1 [cannabigerol, 2-geranyl-5-pentylbenzene-1,3-diol] | dose-dependent reduction | dose-dependent reduction | dose-dependent reduction | dose-dependent reduction | dose-dependent reduction | dose-dependent reduction | dose-dependent reduction | dose-dependent reduction | dose-dependent reduction | dose-dependent reduction | dose-dependent reduction | –
CCCCCc1cc(O)c(C/C=C(\C)CCC=C(C)C)c(O)c1 [cannabigerol anion, 2-geranyl-3-hydroxy-5-pentylphenolate] | – | – | – | – | – | – | – | – | – | – | – | chronic anxiety symptoms (self-reported) (individuals with anxiety; glycerol tincture): significant improvement in their anxiety symptoms; onset and quality of sleep (self-reported) [13]: significant improvement in the onset and quality of their sleep; symptoms of Crohn's disease (self-reported) [14]: significant improvement in their symptoms of Crohn's disease; symptoms of Inflammatory Bowel Disease (self-reported) [15]: significant improvement in their symptoms of Inflammatory Bowel Disease; plaque psoriasis symptoms (self-reported) [16]: significant improvement in their plaque psoriasis symptoms; peripheral neuropathy symptoms (self-reported) [17]: significant improvement in their peripheral neuropathy symptoms
CCCc1cc(O)c(C/C=C(\C)CCC=C(C)C)c(O)c1 [cannabigerovarin, 2-geranyl-5-propylbenzene-1,3-diol] | dose-dependent reduction | dose-dependent reduction | dose-dependent reduction | dose-dependent reduction | dose-dependent reduction | dose-dependent reduction | dose-dependent reduction | dose-dependent reduction | dose-dependent reduction | dose-dependent reduction | dose-dependent reduction | –
